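Exposure lasted 48 hours, with cells grown in 96-well plates and compounds tested at five concentrations. GI50: concentration for 50% inhibition of growth. The concentration for full growth arrest is given as TGI.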 Where only a bound is given, the exact number is not on record here.

For this test, the system named is MDA-MB-468 breast. Briefly: NCI-60 cell line screen, 48 h.

Consider `CC1(C)N=C(N)N=C(N)N1c1ccc(OCCCCNC(=O)Nc2cccc(S(=O)(=O)F)c2)c(Cl)c1`, for which the GI50 is 3470 nM and the TGI is over 100 µM.

Take `CCN(CC)C(=O)CCCCCn1c2ccccc2c2c3c(c4c5ccccc5[nH]c4c21)C(=O)N(O)C3=O`: the GI50 was 5790 nM and the TGI is over 100 µM.

For `CN(c1ccc(NC(=O)NCCN2CCOCC2)cc1)c1ccnc(Nc2ccc(CS(C)(=O)=O)cc2)n1`, the GI50 was 8210 nM and the TGI was over 25 µM.

With `N=C(N)c1ccc(OCCCCCOc2ccc(C(=N)N)cc2)cc1`, the GI50 was 466 nM and the TGI was determined as 5.83 µM.

With `CS(=O)(=O)c1ccc2c(c1)c1c(n2C(=O)c2ccc(Cl)cc2)CCCC1`, the GI50 is 2090 nM and the TGI was over 100 µM.

As for `Nc1ccn([C@@H]2S[C@H](CO)[C@@H](O)[C@@H]2F)c(=O)n1`, the GI50 is 3250 nM and the TGI was over 88.6 µM.

As for `CN(C)CCS(=O)(=O)Nc1cc(-c2ccc3ncnc(Nc4ccc(F)c(Cl)c4)c3c2)cnc1Cl`, the GI50 was 133 nM and the TGI is 0.449 µM.

For `CN(C)c1ccc2c(c1)OC(N)=C(C#N)C2c1ccc2c(c1)CCCN2C` (configuration not stated), the GI50 was 1620 nM and the TGI stood at 42.5 µM.

With `CCN(CC)CCS(=O)(=O)CCNc1ccnc2cc(Cl)ccc12`, the GI50 was 711 nM and the TGI is 1.91 µM.

In the case of `CCc1c(C#N)c(SC(C(N)=O)c2ccccc2)nc(N2CCC(N)CC2)c1C#N` (configuration not stated), the GI50 is 3530 nM and the TGI is 16.4 µM.

Consider `Cc1nn2c(-c3nc4cc(Cl)c(Cl)cc4[nH]3)c(-c3ccc(F)cc3)nc2s1`, for which the GI50 was over 29100 nM and the TGI is over 100 µM.

`Oc1ccc(-c2[nH]c3ccccc3c2-c2nc3ccccc3o2)cc1`: the GI50 was 1360 nM and the TGI was determined as 5.98 µM.

Take `O=C(Nc1cccc(-n2cc(-c3ccncc3)c(-c3ccc(O)c(Cl)c3)n2)c1)Nc1ccc(Cl)c(Cl)c1`: the GI50 is 1960 nM and the TGI is 6.65 µM.

Turning to `CC/C(=C(/c1ccc(/C=C/C(=O)O)cc1)c1ccc2[nH]ncc2c1)c1ccc(F)cc1Cl`, the GI50 is 15100 nM and the TGI came to 42.8 µM.

For the compound `O=C1C2C(C(=O)N1CC[Se][Se]CCN1C(=O)C3C(C1=O)[C@H]1C=C[C@@H]3C1)[C@H]1C=C[C@@H]2C1` (some centres not stated), the GI50 is 324 nM and the TGI was 1.32 µM.

Turning to `COc1ncc2cc1NS(=O)(=O)c1cccc(c1)C(=O)NCC1=CC=C(S1)c1ncnc3c1SC2=C3C`, the GI50 was 72 nM and the TGI was determined as 0.234 µM.

Turning to `Oc1c(I)cc(Cl)c2cccnc12`, the GI50 was 2050 nM and the TGI was determined as 5.13 µM.

Take `O=C(/C=C/c1cccc(Oc2ccc(Cl)cc2)c1)c1ccccc1`: the GI50 was 101000 nM and the TGI stood at 338 µM.

For the compound `N#Cc1cccc(C2C3=C(COC3=O)N(CCO)c3cc4c(cc32)CCC4)c1` (configuration not stated), the GI50 was 115 nM.

In the case of `Cc1ccc(-c2nc(C(Cl)Cl)nc3cc(C)nn23)cc1`, the GI50 was 259 nM and the TGI worked out at 0.957 µM.

In the case of `Cc1n(Cc2ccc3ccccc3n2)cc[n+]1Cc1ccc2ccccc2c1`, the GI50 was 270 nM and the TGI is 1.58 µM.

In the case of `COC(=O)C1=Nc2ccc(F)cc2/C1=C/c1sc(=S)[nH]c1O`, the GI50 was 354 nM and the TGI was found to be 2.95 µM.

With `CCc1ccc(C2=NN(c3ccc(S(C)(=O)=O)cc3)C(=O)CC2)cc1`, the GI50 was 4430 nM and the TGI worked out at 43.7 µM.

As for `CCOc1cc2c(cc1O)CC[C@@H]1[C@@H]2CC[C@]2(C)[C@@H](O)CC[C@@H]12`, the GI50 is 4960 nM and the TGI came out at 31.8 µM.

Turning to `Cc1ccc(O)cc1Nc1ccnc2cc(-c3ccccn3)ccc12`, the GI50 was 736 nM and the TGI amounted to 3.57 µM.

With `Cc1cc(-c2ccco2)cc(C)c1/C=C/c1cncc(-c2nn[nH]n2)c1`, the GI50 was over 25000 nM and the TGI was over 25 µM.

On to `CCN(CC)C(=S)SSCCO`, for which the GI50 is 15000 nM and the TGI worked out at 28.9 µM.

For the compound `O=C(Nc1nc2c(s1)CCc1c-2c(Br)n(Cc2ccccc2)c1Br)c1ccccc1`, the GI50 was 8280 nM and the TGI is over 100 µM.

Consider `OC(c1cc(-c2ccc(Cl)cc2)nc2c(Cl)cccc12)C1CCCCN1` (configuration not stated), for which the GI50 is 1740 nM and the TGI amounted to 3.26 µM.

As for `O=S(=O)(NCCCNc1nccc(-c2c(-c3cccc(F)c3)nc3occn23)n1)c1cccc2ccccc12`, the GI50 is 4860 nM and the TGI is over 100 µM.

With `CCN(CCNc1ccc(C)c2sc3cc(Cl)ccc3c(=O)c12)CC(C)(C)O`, the GI50 is 3490 nM and the TGI is 10.4 µM.

With `COc1cc(OC)c(/C=C/C(=O)c2c(N)cc(OC)cc2OC)c(OC)c1`, the GI50 is 322 nM and the TGI was determined as 7.26 µM.

Consider `CCOC(=O)c1cc2cc(OCc3ccccc3)ccc2[nH]1`, for which the GI50 is over 100000 nM and the TGI is over 100 µM.

Turning to `CC(C)C/C(=N\NC(=O)c1ccncc1)c1cc(Cl)ccc1O`, the GI50 is 288 nM and the TGI came to 1.97 µM.

For the compound `Nc1c(C(=O)Nc2ccccn2)sc2nc3c(cc12)CCCCCC3`, the GI50 is 435 nM and the TGI was found to be 7.13 µM.

As for `Cc1ccc(C(=O)N2C/C(=C/c3ccccc3)C(=O)/C(=C/c3ccccc3)C2)cc1`, the GI50 is 2230 nM and the TGI amounted to 10.7 µM.

`C=C(C)[C@@H]1CC[C@]2(C(=O)n3ccnc3)CC[C@]3(C)[C@H](CC[C@@H]4[C@@]5(C)CCCNC(C)(C)[C@@H]5CC[C@]43C)[C@@H]12`: the GI50 is 1900 nM and the TGI amounted to 3.53 µM.

For the compound `C=CC[PH+](c1ccccc1)c1ccccc1.C=CC[PH+](c1ccccc1)c1ccccc1.[Pt+2].[S-]c1ncccn1.[S-]c1ncccn1`, the GI50 was 3060 nM and the TGI came to 13.9 µM.

Turning to `CCN(CC)CCCNc1c2ccc(Cl)cc2nc2ccc(OC)cc12`, the GI50 is 71.1 nM and the TGI was found to be 2.71 µM.

Take `Nc1n[nH]c2ccc([C@@H]3Nc4c(F)cc5[nH]ncc5c4[C@H]4C5CCC(C5)[C@@H]34)cc12` (some centres not stated): the GI50 was 116 nM and the TGI amounted to 0.621 µM.

In the case of `CCN(CC)Cc1cc(Nc2cc(C(F)(F)F)c(C#N)c3nc4ccccc4n23)ccc1O`, the GI50 was 228 nM and the TGI amounted to 3.69 µM.

As for `Cc1ccccc1CNc1c2ccccc2nc2ccccc12`, the GI50 is 1880 nM and the TGI was 4.89 µM.

Consider `Cc1ccc(NC2=CC(=O)C(=O)c3ccccc32)c(C)c1`, for which the GI50 is 2560 nM and the TGI is 8.61 µM.

For `COc1cc(/C=N/Nc2ccnc3cc(Cl)ccc23)cc(OC)c1O`, the GI50 is 1650 nM and the TGI turned out to be 3.28 µM.

The record behind these values is PubChem BioAssay (NCI).
